Reference: ChEMBL document CHEMBL1137846, “Estrogen receptor ligands. Part 7: Dihydrobenzoxathiin SERAMs with bicyclic amine side chains” (Bioorg Med Chem Lett, 2004)

What was measured:
Estrogen receptor beta = Estrogen receptor beta (Homo sapiens, UniProt Q92731)
Description: Binding potency for human ER beta

Estrogen receptor = target: T1, Estrogen receptor (Homo sapiens, UniProt P03372)
T1 sequence (P03372 whole entry): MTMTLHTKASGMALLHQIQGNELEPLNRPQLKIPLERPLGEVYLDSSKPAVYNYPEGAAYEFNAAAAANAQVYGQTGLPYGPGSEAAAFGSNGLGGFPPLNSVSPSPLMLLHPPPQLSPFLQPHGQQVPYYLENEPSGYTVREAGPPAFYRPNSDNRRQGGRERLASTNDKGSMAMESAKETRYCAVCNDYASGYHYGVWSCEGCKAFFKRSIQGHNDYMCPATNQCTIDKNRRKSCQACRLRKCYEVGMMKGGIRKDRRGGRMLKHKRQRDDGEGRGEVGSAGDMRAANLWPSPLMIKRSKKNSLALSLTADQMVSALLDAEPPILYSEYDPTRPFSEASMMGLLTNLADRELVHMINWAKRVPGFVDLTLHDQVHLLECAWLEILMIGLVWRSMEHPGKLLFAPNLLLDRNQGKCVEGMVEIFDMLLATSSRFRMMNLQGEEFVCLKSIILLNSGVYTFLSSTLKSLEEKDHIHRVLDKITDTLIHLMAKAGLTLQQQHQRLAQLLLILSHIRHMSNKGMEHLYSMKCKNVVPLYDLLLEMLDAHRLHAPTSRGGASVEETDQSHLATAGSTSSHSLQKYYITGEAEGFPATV
Description: Binding potency for human ER alpha

MCF7 = test: cells; details: Homo sapiens

Sequence of Estrogen receptor beta (Q92731 whole entry): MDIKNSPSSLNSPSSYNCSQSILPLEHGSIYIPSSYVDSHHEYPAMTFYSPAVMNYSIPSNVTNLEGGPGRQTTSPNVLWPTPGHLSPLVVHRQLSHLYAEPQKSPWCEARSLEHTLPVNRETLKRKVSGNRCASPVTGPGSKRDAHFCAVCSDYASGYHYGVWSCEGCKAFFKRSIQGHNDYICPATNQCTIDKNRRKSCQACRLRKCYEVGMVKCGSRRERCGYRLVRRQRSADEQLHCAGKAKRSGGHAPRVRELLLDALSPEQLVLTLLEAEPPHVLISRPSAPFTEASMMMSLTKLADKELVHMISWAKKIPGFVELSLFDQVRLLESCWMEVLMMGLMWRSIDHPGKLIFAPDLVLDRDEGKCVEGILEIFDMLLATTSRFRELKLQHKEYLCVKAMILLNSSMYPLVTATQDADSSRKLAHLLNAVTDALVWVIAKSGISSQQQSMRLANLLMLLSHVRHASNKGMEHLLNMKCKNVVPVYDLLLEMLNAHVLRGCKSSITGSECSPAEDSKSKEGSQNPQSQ

Row | SMILES | IC50 (Estrogen receptor beta) | IC50 (MCF7) | IC50 (Estrogen receptor)
1 | Oc1ccc([C@H]2Sc3cc(O)ccc3O[C@H]2c2ccc(OCCN3C4CCCC3CCC4)cc2)cc1 | 47 nM | 3 nM | 0.6 nM
2 | Oc1ccc([C@H]2Sc3cc(O)ccc3O[C@H]2c2ccc(OCCN3CC4CC5CC(C4)CC3C5)cc2)cc1 | 40 nM | 5.8 nM | 0.6 nM
3 | Oc1ccc([C@H]2Sc3cc(O)ccc3O[C@H]2c2ccc(OCCN3CC4CCC4C3)cc2)cc1 (some centres not stated) | 85 nM | 2.5 nM | 0.8 nM
4 | Oc1ccc([C@H]2Sc3cc(O)ccc3O[C@H]2c2ccc(OCCN3CC4(CCC4)C3)cc2)cc1 | 26 nM | 0.3 nM | 0.4 nM
5 | Oc1ccc([C@H]2Sc3cc(O)ccc3O[C@H]2c2ccc(OCCN3CC4CCC3CC4)cc2)cc1 | 52 nM | 1.6 nM | 1.3 nM
6 | Oc1ccc([C@H]2Sc3cc(O)ccc3O[C@H]2c2ccc(OCCN3CC4CC3CO4)cc2)cc1 (some centres not stated) | 73 nM | 3.3 nM | 0.7 nM

Now from value to molecule, other results behind:

Row | IC50 (Estrogen receptor beta) | IC50 (MCF7) | SMILES | IC50 (Estrogen receptor)
7 | 51 nM | 2.2 nM | Oc1ccc([C@H]2Sc3cc(O)ccc3O[C@H]2c2ccc(OCCN3C4CCCC3CC4)cc2)cc1 | 0.6 nM
8 | 33 nM | 0.4 nM | Oc1ccc([C@H]2Sc3cc(O)ccc3O[C@H]2c2ccc(OCCN3CC[C@H]4C[C@H]43)cc2)cc1 | –
9 | 39 nM | 29.8 nM | Oc1ccc([C@H]2Sc3cc(O)ccc3O[C@H]2c2ccc(OCCN3CCC4(CCCC4)CC3)cc2)cc1 | 1.2 nM
10 | 33 nM | 7.7 nM | Oc1ccc([C@H]2Sc3cc(O)ccc3O[C@H]2c2ccc(OCCN3C[C@H]4CCCC[C@H]4C3)cc2)cc1 | 1 nM
11 | 118 nM | 3.6 nM | Oc1ccc([C@H]2Sc3cc(O)ccc3O[C@H]2c2ccc(OCCN3C4CCC3CC4)cc2)cc1 | 0.9 nM
12 | 18 nM | 1.3 nM | Oc1ccc([C@H]2Sc3cc(O)ccc3O[C@H]2c2ccc(OCCN3C[C@H]4CCC[C@H]4C3)cc2)cc1 | 0.3 nM
13 | 56 nM | 0.5 nM | Oc1ccc([C@H]2Sc3cc(O)ccc3O[C@H]2c2ccc(OCCN3CC[C@@H]4CC43)cc2)cc1 (single isomer, unassigned) | –
